# Test results: patent publication US20230103631A1, “PEPTIDES AS SELECTIVE GIP RECEPTOR AGONISTS” (Sanofi, priority 2020, published 2023)
# *1 amine or outer side, *2 acyl side, *3 side chain or, on linkers, in order; H or OH if unused. Where a SMILES comes first, the peptide text is derived from it. Side-chain parts run from the residue outwards. [ ]: non-standard residue; d: D form. The star is where a group is joined. C18 diacid = O=C(O)CCCCCCCCCCCCCCCCC(=O)*; γGlu = O=C(O)[C@H](CCC(=O)[*:2])N[*:1]; AEEA = NCCOCCOCC(=O)O; Aib = CC(C)(N)C(=O)O
# Experiments:
# Format in all cases: physicochemical
# physchem = conditions: for Soluble amount: 24 h, pH 7.4; for solubility at 24 h: pH 7.4, Soluble amount
# Protocol: Prior to the solubility measurement of a peptide batch, its purity was determined through UHPLC/MS. […] Therefore, solutions from solid samples were prepared in a buffer system with a concentration of 10 mg/ml compound based on the previously determined % purity: Solubility buffer system A) 100 mM phosphate buffer pH 7.4 […] Solubility buffer system C) 100 mM phosphate buffer pH 7.4, 2.7 mg/ml m-cresol UHPLC-UV was performed after 1 h of gentle agitation and storage at 5° C. over night (24 h) from the supernatant, which was obtained after 15 min of centrifugation at 2500 RCF (relative centrifugal acceleration). […] The different UV extinction coefficients of sample and reference peptide were calculated based on the different amino acid sequences and considered in the concentration calculation. The analytical method used was Analytical UHPLC Method A. Peptide samples were prepared in solubility buffer system A or C and solubility was assessed as described in Methods.
# [1] = Dynamic light scattering (DLS) for the assessment of physical stability
# Description: A monochromatic and coherent light beam (laser) is used to illuminate the liquid sample. Dynamic Light Scattering (DLS) measures light scattered from particles (1 nm≤radius≤1 μm) that undergo Brownian motion. This motion is induced by collisions between the particles and solvent molecules, that themselves are moving due to their thermal energy. The diffusional motion of the particles results in temporal fluctuations of the scattered light (R. Pecora, Dynamic Light Scattering: Applications of Photon Correlation Spectroscopy, Plenum Press, 1985).
# The scattered light intensity fluctuations are recorded and transformed into an autocorrelation function. By fitting the autocorrelation curve to an exponential function, the diffusion coefficient D of the particles in solution can be derived. The diffusion coefficient is then used to calculate the hydrodynamic radius Rh (or apparent Stokes radius) through the Stokes-Einstein equation assuming spherical particles. This calculation is defined in ISO 13321 and ISO 22412 (International Standard ISO13321 Methods for Determination of Particle Size Distribution Part 8: Photon Correlation Spectroscopy, International Organisation for Standardisation (ISO) 1996; International Standard ISO22412 Particle Size Analysis—Dynamic Light Scattering, International Organisation for Standardisation, 2008).
# In case of polydisperse samples, the autocorrelation function is the sum of the exponential decays corresponding to each of the species. The temporal fluctuations of the scattered light can then be used to determine the size distribution profile of the particle fraction or family. The first order result is an intensity distribution of scattered light as a function of the particle size. The intensity distribution is naturally weighted according to the scattering intensity of each particle fraction or family. For biological materials or polymers, the particle scattering intensity is proportional to the square of the molecular weight. Thus, small amount of aggregates/agglomerates or presence or a larger particle species can dominate the intensity distribution. However, this distribution can be used as a sensitive detector for the presence of large material in the sample.
# The DLS technique produces distributions with inherent peak broadening. The polydispersity index % Pd is a measure of the width of the particle size distribution and is calculated by standard methods described in ISO13321 and ISO22412 [International Standard ISO13321 Methods for Determination of Particle Size Distribution Part 8: Photon Correlation Spectroscopy, International Organisation for Standardisation (ISO) 1996; International Standard ISO22412 Particle Size Analysis—Dynamic Light Scattering, International Organisation for Standardisation (ISO) 2008].
# Solutions from solid samples were prepared in buffer systems (see below) with a target concentration of 300 μM compound based on the previously determined % purity.
# DLS buffer system A) 20 mM phosphate buffer pH 7.4
# DLS buffer system B) 8 mM phosphate buffer pH 7.4, 14 mg/ml propylene glycol, 5.5 mg/ml phenol
# DLS buffer system C) 100 mM phosphate buffer pH 7.4, 2.7 mg/ml m-cresol Solutions were filtered through 0.22 μm pore size and filled into sterilized glass containers under laminar flow conditions. For every peptide solution, the apparent hydrodynamic radius (Rh), the corresponding Scattering Intensity (I), and the Mass Contribution (M) were determined as an average over 3-6 replicates from the intensity distribution of the scattered light averaging only high-quality measurements. Relative standard deviations (RSD) for these parameters were calculated from the same number of replicates. […]
# [2] = Chemical stability assessment (relative purity loss by UHPLC-UV)
# Protocol: Purity of a peptide batch was determined through UHPLC/MS prior to chemical stability measurement. The target concentration was […] pure compound. Solutions from solid samples were prepared in the following buffer systems with a concentration of ˜300 μM compound based on the previously determined % purity:
# Chemical stability buffer system A) 20 mM phosphate buffer pH 7.4,
# Chemical stability buffer system B) 8 mM phosphate buffer pH 7.4, 14 mg/ml propylene glycol, 5.5 mg/ml phenol
# Chemical stability buffer system C) 100 mM phosphate buffer pH 7.4, 2.7 mg/ml m-cresol
# Prepared solutions were filtered through […] pore size and filled into sterilized glass containers under laminar flow conditions.
# Glass containers were stored for 28 days at 5 and 40° C. After this time, the samples were centrifuged for 15 min at 2500 RCF. Then 1.5 μl of the undiluted supernatant were analysed with UHPLC-UV.
# The chemical stability was rated through the relative loss of purity calculated by the equation:
# [(purity after 28 days at 5° C.)−(purity after 28 days at 40° C.)]/(purity after 28 days at 5° C.)]*100%
# The purity is calculated as
# [(peak area peptide)/(total peak area)]*100%
# The analytical methods used were Analytical UHPLC Method B or C.
# Peptide samples were prepared in Chemical stability buffer system A or B and stability was assessed as described in Methods.
# [3] = DLS buffer system A, 4 weeks storage at 40° C.
# [4] = Chemical stability buffer system A: 20 mM phosphate buffer pH 7.4
# [5] = DLS buffer system B (phenol), 0 weeks
# [6] = DLS buffer system B (phenol), 4 weeks storage at 40° C.
Compound,Soluble amount (physchem) [mg/mL],solubility at 24 h (physchem) [µg/mL],"I and SD (Scattering Intensity) ([1]; DLS buffer system A, 0 weeks) [%]","M and SD (Mass Contribution) ([1]; DLS buffer system A, 0 weeks) [%]","apparent Rh and SD ([1]; DLS buffer system A, 0 weeks) [nm]","I and SD (Scattering Intensity) [1, 3] [%]","M and SD (Mass Contribution) [1, 3] [%]","apparent Rh and SD [1, 3] [nm]","Relative purity loss over 28 days at 40° C. [2, 4] [%]","I and SD (Scattering Intensity) [1, 5] [%]","M and SD (Mass Contribution) [1, 5] [%]","apparent Rh and SD [1, 5] [nm]","I and SD (Scattering Intensity) [1, 6] [%]","M and SD (Mass Contribution) [1, 6] [%]","apparent Rh and SD [1, 6] [nm]","Relative purity loss over 28 days at 40° C. ([2]; Chemical stability buffer system B: 8 mM phosphate buffer pH 7.4, 14 mg/ml propylene glycol, 5.5 mg/ml phenol) [%]"
"CC[C@H](C)[C@H](NC(=O)[C@H](CCCNC(=N)N)NC(=O)[C@H](CC(=O)O)NC(=O)[C@H](CCCCNC(=O)COCCOCCNC(=O)COCCOCCNC(=O)CC[C@H](NC(=O)CCCCCCCCCCCCCCCCC(=O)O)C(=O)O)NC(=O)C(C)(C)NC(=O)[C@@H](NC(=O)[C@H](CO)NC(=O)[C@H](CC(C)C)NC(=O)[C@H](CC(=O)O)NC(=O)[C@H](CO)NC(=O)[C@@H](NC(=O)[C@H](Cc1ccccc1)NC(=O)[C@@H](NC(=O)CNC(=O)[C@H](CCC(=O)O)NC(=O)C(C)(C)NC(=O)[C@@H](N)Cc1ccc(O)cc1)[C@@H](C)O)[C@@H](C)CC)[C@@H](C)CC)C(=O)N[C@@H](Cc1c[nH]cn1)C(=O)N[C@@H](CCC(N)=O)C(=O)NC(C)(C)C(=O)N[C@@H](CCC(=O)O)C(=O)N[C@@H](Cc1ccccc1)C(=O)N[C@H](C(=O)N[C@@H](CCC(=O)O)C(=O)N[C@@H](Cc1c[nH]c2ccccc12)C(=O)N[C@@H](CC(C)C)C(=O)N[C@@H](CC(C)C)C(=O)N[C@@H](C)C(=O)N[C@@H](CCC(N)=O)C(=O)NCC(=O)N1CCC[C@H]1C(=O)N[C@@H](CO)C(=O)N[C@@H](CO)C(=O)NCC(=O)N[C@@H](C)C(=O)N1CCC[C@H]1C(=O)N1CCC[C@H]1C(=O)N1CCC[C@H]1C(=O)N[C@@H](CO)C(N)=O)[C@@H](C)CC [SEQ ID NO: 4, H2N-Y-Aib-E-G-T-F-I-S-D-I-S-I-Aib-K[{AEEA}2-gGlu-C18OH]-D-R-I-H-Q-Aib-E-F-I-E-W-I-L-A-Q-G-P-S-S-G-A-P-P-P-S-NH2] (H-Y[Aib]EGTFISDLSI[Aib]K([AEEA-AEEA-γGlu-C18 diacid])DRIHQ[Aib]EFIEWLLAQGPSSGAPPPS-NH2)",>8.4,> 9500,93 ± 1,100 ± 0,1.91 ± 0.05,93 ± 1,100 ± 0,1.9 ± 0.04,,,,,,,,
"CC[C@H](C)[C@H](NC(=O)[C@H](CCCNC(=N)N)NC(=O)[C@H](CC(=O)O)NC(=O)[C@H](CCCCNC(=O)CNC(=O)CNC(=O)CNC(=O)CC[C@H](NC(=O)CCCCCCCCCCCCCCCCC(=O)O)C(=O)O)NC(=O)C(C)(C)NC(=O)[C@@H](NC(=O)[C@H](CO)NC(=O)[C@H](CC(C)C)NC(=O)[C@H](CC(=O)O)NC(=O)[C@H](CO)NC(=O)[C@@H](NC(=O)[C@H](Cc1ccccc1)NC(=O)[C@@H](NC(=O)CNC(=O)[C@H](CCC(=O)O)NC(=O)C(C)(C)NC(=O)[C@@H](N)Cc1ccc(O)cc1)[C@@H](C)O)[C@@H](C)CC)[C@@H](C)CC)C(=O)N[C@@H](Cc1c[nH]cn1)C(=O)N[C@@H](CCC(N)=O)C(=O)NC(C)(C)C(=O)N[C@@H](CCC(=O)O)C(=O)N[C@@H](Cc1ccccc1)C(=O)N[C@H](C(=O)N[C@@H](CCC(=O)O)C(=O)N[C@@H](Cc1c[nH]c2ccccc12)C(=O)N[C@@H](CC(C)C)C(=O)N[C@@H](CC(C)C)C(=O)N[C@@H](C)C(=O)N[C@@H](CCC(N)=O)C(=O)NCC(=O)N1CCC[C@H]1C(=O)N[C@@H](CO)C(=O)N[C@@H](CO)C(=O)NCC(=O)N[C@@H](C)C(=O)N1CCC[C@H]1C(=O)N1CCC[C@H]1C(=O)N1CCC[C@H]1C(=O)N[C@@H](CO)C(N)=O)[C@@H](C)CC [SEQ ID NO: 5, H2N-Y-Aib-E-G-T-F-I-S-D-I-S-I-Aib-K[{Gly}3-gGlu-C18OH]-D-R-I-H-Q-Aib-E-F-I-E-W-I-L-A-Q-G-P-S-S-G-A-P-P-P-S-NH2] (H-Y[Aib]EGTFISDLSI[Aib]K([Gly-Gly-Gly-γGlu-C18 diacid])DRIHQ[Aib]EFIEWLLAQGPSSGAPPPS-NH2)",>8.3,> 9300,76 ± 2,100 ± 0,2.05 ± 0.04,89 ± 3,100 ± 0,1.99 ± 0.03,5.8,,,,,,,
"CC[C@H](C)[C@H](NC(=O)[C@H](Cc1ccccc1)NC(=O)[C@H](CCC(=O)O)NC(=O)[C@H](CCC(=O)O)NC(=O)[C@H](CCC(N)=O)NC(=O)[C@H](Cc1c[nH]cn1)NC(=O)[C@@H](NC(=O)[C@H](CCCNC(=N)N)NC(=O)[C@H](CC(=O)O)NC(=O)[C@H](CCCCNC(=O)COCCOCCNC(=O)COCCOCCNC(=O)CC[C@H](NC(=O)CCCCCCCCCCCCCCCCC(=O)O)C(=O)O)NC(=O)C(C)(C)NC(=O)[C@@H](NC(=O)[C@H](CO)NC(=O)[C@H](CC(C)C)NC(=O)[C@H](CC(=O)O)NC(=O)[C@H](CO)NC(=O)[C@@H](NC(=O)[C@H](Cc1ccccc1)NC(=O)[C@@H](NC(=O)CNC(=O)[C@H](CCC(=O)O)NC(=O)C(C)(C)NC(=O)[C@@H](N)Cc1ccc(O)cc1)[C@@H](C)O)[C@@H](C)CC)[C@@H](C)CC)[C@@H](C)CC)C(=O)N[C@@H](CCC(=O)O)C(=O)N[C@@H](Cc1c[nH]c2ccccc12)C(=O)N[C@@H](CC(C)C)C(=O)N[C@@H](CC(C)C)C(=O)N[C@@H](C)C(=O)N[C@@H](CCC(N)=O)C(=O)NCC(=O)N1CCC[C@H]1C(=O)N[C@@H](CO)C(=O)N[C@@H](CO)C(=O)NCC(=O)N[C@@H](C)C(=O)N1CCC[C@H]1C(=O)N1CCC[C@H]1C(=O)N1CCC[C@H]1C(=O)N[C@@H](CO)C(N)=O [SEQ ID NO: 9, H2N-Y-Aib-E-G-T-F-I-S-D-I-S-I-Aib-K[{AEEA}2-gGlu-C18OH]-DRIHQEEFIEWILAQGPSSGAPPPS-NH2] (H-Y[Aib]EGTFISDLSI[Aib]K([AEEA-AEEA-γGlu-C18 diacid])DRIHQEEFIEWLLAQGPSSGAPPPS-NH2)",,,80 ± 3,100 ± 0,1.86 ± 0.03,80 ± 3,100 ± 0,1.87 ± 0.03,6.9,82 ± 3,100 ± 0,1.85 ± 0.04,97 ± 4,100 ± 0,1.73 ± 0.03,8.2
